# Experiments:
# calcium level in serum [1] = experiment: Prevention of hypercalcemia in rats administered with 1-α-(OH)-D3 (Example 4); type: in vivo, male Wistar rats; conditions: 100 µg/kg oral together with 1-α-(OH)-D3 10 µg/kg i.p.
# Excerpt: In the present example, it is shown that 24R,25-(OH)2 -D3 has a function of preventing the occurrence of hypercalcemia on rats administered with 1-α-hydroxycholecalciferol (hereinafter referred to as 1-α-(OH)-D3).
# Six subgroups of male Wistar rats of 130±30 g of body weight were subjected to the test while dividing the rats into 3 groups, each group consisting of 2 subgroups and each subgroup consisting of 5 animals. To the rats of the first group, after fasting for a night, an ethanolic solution of 1-α-(OH)-D3 was intraperitoneally administered at a dose rate of 10 micrograms of 1-α-(OH)-D3 /kg body weight. To the rats of the second group, a solution of 24R,25-(OH)2 -D3 in the triglyceride ester used in Example 1 was orally administered at a dose rate of 100 micrograms/kg body weight simultaneously with the same administration of 1-α-(OH)-D3 as in the rats of the first group.
# The third group of the rats was used for control only with the oral administration of the triglyceride ester used in Example 1.
# calcium level in serum [2] = experiment: Serum calcium in rats transplanted with Walker-carcinosarcoma 256 (Example 5); type: in vivo, Sprague-Dawley rat
# Method: After injecting 0.5 ml of ascites of Walker-carcinosarcoma 256 adjusted to contain 2×10^6 tumour cells per microliter into the upper part of the right thigh of a Sprague-Dawley rat of body weight of 90-140 g, a solution of 24R,25-(OH)2 -D3 in the triglyceride ester used in Example 1 at a concentration of 0.5 microgram/100 microliter was orally administered once a day for continuous 7 days at a daily dose rate of 20 micrograms of 24R,25-(OH)2 -D3 per kg body weight of the rat. […] The blood specimen was also collected in the same manner from a rat of the same strain injected with the ascites in the same manner as in the first rat, however, only administered with the triglyceride ester. The two levels of calcium in the respective sera of the two groups were compared in Table 5.
# calcium level in serum [3] = experiment: Serum calcium in hemodialysis patient hypercalcemic due to active Vitamin D3 (Example 7); type: in vivo, human; conditions: person six; baseline
# Method: person six who was subjected to hemodialysis on account of renal failure and became hypercalcemia due to the four month administration of active Vitamin D3 at a daily dose of 0.5 to 1.0 microgram was treated by the oral administration of the capsule composition similar to that prepared in Example 6 for three continuous days at a daily dose of 10 micrograms of 24R,25-(OH)2 -D3.
# calcium level in serum [4] = experiment: Serum calcium in patient with sarcoidosis accompanied by hypercalcemia (Example 8); type: in vivo, human; conditions: person two
# Method: To patient two diagnosed to be sarcoidosis accompanied by hypercalcemia of the calcium level in their serum of 14.0 mg/dl, the capsule composition similar to that prepared in Example 6 was administered orally at a daily dose of two capsules each containing 5 micrograms of 24R,25-(OH)2 -D3 for continuous 5 days. The calcium level in serum from the blood specimen collected on the sixth day of the commencement of the treatment was 10.8 mg/dl.
# thymus = experiment: Weight ratio of thymus to body and number of thymocytes in rats given puromycin aminonucleoside (Example 11); type: in vivo, male JCL-Wistar rats; conditions: 100 µg/kg/day oral 12 days with puromycin aminonucleoside 15 mg/kg s.c.
# Method: Thirty-two male JCL-Wistar rats in tenth week after birth were used in the present test while keeping them in a room at 21±1° C. and 60±5% RH with solid diet (CE 2) and water taken ad lib.
# They were divided equally into 4 groups (one group consisting of 8 animals), their treatments in the test being as follows:
# subcutaneous injection of puromycin aminonucleoside as in the second group and oral administration of 24R,25-(OH)2 -D3 dissolved in Panacete 810 once a day at a daily dose rate of 100 micrograms/kg for continuous 12 days.
# subcutaneous injection of puromycin aminonucleoside as in the second group and oral administration of 24S,25-(OH)2 -D3 dissolved in Panacete 810 once a day at a daily dose rate of 100 micrograms/kg for continuous 12 days.
# After uniformly loosing the thymus in phosphate buffer solution with a forcets and fully pipetting, the mixture was filtered through a stainless steel mesh (Tylar standard #200) and the filtrate containing the thymic cells was stained with Turk's solution. The thus stained specimen was subjected to counting under a microscope.
# [5] = test system: lymphocytes from a healthy person; experiment: Effect of plasma of treated renal failure/uremia patients on blastoid-transformation of lymphocytes from a healthy person (Example 14); type: cell-based, human; conditions: 0.5 to 1.0 µg/day oral, 1 to 6 months
# Excerpt: Effects of plasma derived from a patient suffering from chronic renal failure or uremia treated with the present compound or not treated therewith on blastoid-transformation of lymphocytes from a healthy person Heparinized fresh peripheral blood of a normal person was mixed with Ficoll-Paque solution, and after subjecting the mixture to ultracentrifugal separation, the layer of lymphocyte was collected, and after washing the layer three times with phosphate buffer solution, the washed lymphocytes were dispersed in suspension in RPMI-1640 culture medium (liquid) at a concentration of 6×10^5 cells/ml. […] Then, the specimen was harvested to determine the uptake of ^3 H-TdR by the lymphocytes. In addition, the plasma of each patient was collected two times, namely, once before hemodialysis and once after hemodialysis, and accordingly the total patient system of the present test consists of two large groups one of which is administered and the other of which is not administered with the compound, and each large group consists of two groups one of which is not yet hemodialysed and the other of which has been already hemodialysed.
# blood sugar = experiment: Blood sugar in streptozotocin rats (Example 22); type: in vivo, male Wistar rats; conditions: 10 µg/kg/day p.o., 4 weeks, streptozotocin i.p.
# Method: Among the male Wistar rats in 6th week after birth to which 60 mg of streptozotocin/kg body weight was intraperitoneally administered, those in which positive urine sugar was confirmed after one week of the administration, reduction of both urine sugar and blood sugar was shown by the administration of regular insulin and a state of hyper urine sugar and hyper blood sugar was confirmed after a few days of the administration of regular insulin. The confirmed rats were used as the model animals of glycosuria in the following tests. As control, the male Wistar rats intraperitoneally administered with aqueous physiological saline solution instead of streptozotocin were used. These rats were fed with an ordinary solid diet (CE-2, prepared by Nippon Crea Co., Ltd.)
# The model animals were divided into two groups each consisting of 12 animals, and to the rats of the first group (according to the present invention), 24R,25-(OH)2 -D3 was forcibly administered p.o. in a state of solution in MCT (triglyceride of C8 and C10 -fatty acid) containing 0.2% by weight of ethanol once a day, 5 to 6 times a week for continuous 4 weeks at a daily dose rate of 10 micrograms/kg body weight. To the rats of the second group, only the same amount of MCT containing 0.2% by weight of ethanol as above was forcibly p.o. administered in the same manner as in the first group. […]
smiles,measurement,setting,value
"C=C1CC[C@H](O)C/C1=C/C=C1\CCC[C@]2(C)[C@@H]([C@H](C)CC[C@@H](O)C(C)(C)O)CC[C@@H]12 [24R,25-(OH)2 -D3]",Calcium level in serum,calcium level in serum [1]; after 10 hours,11.5 ± 0.5 mg/dL
same,Calcium level in serum,calcium level in serum [1]; after 18 hours,10.6 ± 0.4 mg/dL
same,Calcium level in serum after one week of transplantation,"calcium level in serum [2]; 20 µg/kg/day oral, 7 days",11.2 ± 0.6 mg/dL
same,Calcium level in serum before transplantation,calcium level in serum [2]; before transplantation (baseline),10.5 ± 0.3 mg/dL
same,calcium level in serum before the administration,calcium level in serum [3],12.8 mg/dL
same,calcium level in serum before treatment,calcium level in serum [4]; baseline,14.0 mg/dL
same,calcium level in serum on the sixth day,"calcium level in serum [4]; two 5 µg capsules/day oral, 5 days",10.8 mg/dL
same,Number of thymocytes,thymus,(32 ± 5.5) × 10^7
same,Weight ratio: thymus/body,thymus,0.00101 ± 0.00011
same,Uptake of 3H-TdR in the presence of lectin from kidney beans,[5]; after hemodialysis,222480 ± 21253 cpm
same,Uptake of 3H-TdR in the presence of lipopolysaccharide,[5]; after hemodialysis,129984 ± 51385 cpm
same,Uptake of 3H-TdR in the presence of lectin from kidney beans,[5]; before hemodialysis,228906 ± 19081 cpm
same,Uptake of 3H-TdR in the presence of lipopolysaccharide,[5]; before hemodialysis,158950 ± 48245 cpm
same,Blood sugar,blood sugar,208 ± 42 mg/dL

# Source: patent US4442093A, “Method for administering 24,25-dihydroxycholecalciferol to persons suffering from hypercalcemia” (Kureha Kagaku Kogyo Kabushiki Kaisha, priority 1981, dated 1984)
